From patent publication US10004701B2, “Methods and compositions for treating infection” (UNIVERSITY OF ROCHESTER, priority 2012, dated 2018)
Counter-ions that a name gives are not always drawn. Like-named read-outs stand apart in the source and are kept apart here.

Assays:
Experiment in all cases: AK assay 384-well format, Prestwick library screening
[1] = system: P. aeruginosa; format: cell-based, Pseudomonas aeruginosa; conditions: 50 μM final drug concentration; for fold induction at 50 µM: Pseudomonas aeruginosa, 3 h
[2] = system: S. aureus strain USA300-0114; format: cell-based, Staphylococcus aureus; conditions: 50 μM final drug concentration; for fold induction at 50 µM: Staphylococcus aureus, USA300, 3 h
[3] = system: E. coli; format: cell-based, Escherichia coli; conditions: 50 μM final drug concentration; for fold induction at 50 µM: Escherichia coli, 3 h
[4] = system: K. pneumoniae; format: cell-based, Klebsiella pneumoniae; conditions: 50 μM final drug concentration; for fold induction at 50 µM: Klebsiella pneumoniae, 3 h
[5] = system: E. faecium; format: cell-based, Enterococcus faecium; conditions: 50 μM final drug concentration; for fold induction at 50 µM: Enterococcus faecium, 3 h
[6] = system: A. baumannii strain 98-37-09; format: cell-based, Acinetobacter baumannii; conditions: 50 μM final drug concentration; for fold induction at 50 µM: Acinetobacter baumannii, 983709, 3 h
[7] = system: E. cloacae; format: cell-based, Enterobacter cloacae; conditions: 50 μM final drug concentration; for fold induction at 50 µM: Enterobacter cloacae, 3 h
[8] = planktonic P. aeruginosa, positive cutoff 3-fold increase, read-out: AK-based Prestwick library screening result, P. aeruginosa (fold increase in extracellular AK activity)
[9] = planktonic S. aureus, positive cutoff 3-fold increase, read-out: AK-based Prestwick library screening result, S. aureus (fold increase in extracellular AK activity)
[10] = planktonic E. coli, positive cutoff 3-fold increase, read-out: AK-based Prestwick library screening result, E. coli (fold increase in extracellular AK activity)
[11] = planktonic K. pneumoniae, positive cutoff 3-fold increase, read-out: AK-based Prestwick library screening result, K. pneumoniae (fold increase in extracellular AK activity)
[12] = planktonic E. faecium, positive cutoff 3-fold increase, read-out: AK-based Prestwick library screening result, E. faecium (fold increase in extracellular AK activity)
[13] = planktonic A. baumannii, positive cutoff 3-fold increase, read-out: AK-based Prestwick library screening result, A. baumannii (fold increase in extracellular AK activity)
[14] = planktonic E. cloacae, positive cutoff 3-fold increase, read-out: AK-based Prestwick library screening result, E. cloacae (fold increase in extracellular AK activity)
[15] = planktonic, cutoff for positive 3-fold increase, read-out: AK-based Prestwick Library Screening Results, P. aeruginosa (fold increase in extracellular AK activity)
[16] = planktonic, cutoff for positive 3-fold increase, read-out: AK-based Prestwick Library Screening Results, S. aureus (fold increase in extracellular AK activity)
[17] = planktonic, cutoff for positive 3-fold increase, read-out: AK-based Prestwick Library Screening Results, E. coli (fold increase in extracellular AK activity)
[18] = planktonic, cutoff for positive 3-fold increase, read-out: AK-based Prestwick Library Screening Results, K. pneumoniae (fold increase in extracellular AK activity)
[19] = planktonic, cutoff for positive 3-fold increase, read-out: AK-based Prestwick Library Screening Results, E. faecium (fold increase in extracellular AK activity)
[20] = planktonic, cutoff for positive 3-fold increase, read-out: AK-based Prestwick Library Screening Results, A. baumannii (fold increase in extracellular AK activity)
[21] = planktonic, cutoff for positive 3-fold increase, read-out: AK-based Prestwick Library Screening Results, E. cloacae (fold increase in extracellular AK activity)
[22] = planktonic, cutoff for positive-scoring molecules 3-fold increase
[23] = planktonic, cutoff for positive-scoring molecules 3-fold increase, read-out: AK-based Prestwick Library Screening Results, P. aeruginosa (fold increase in extracellular AK activity)
[24] = planktonic, cutoff for positive-scoring molecules 3-fold increase, read-out: AK-based Prestwick Library Screening Results, S. aureus (fold increase in extracellular AK activity)
[25] = planktonic, cutoff for positive-scoring molecules 3-fold increase, read-out: AK-based Prestwick Library Screening Results, E. coli (fold increase in extracellular AK activity)
[26] = planktonic, cutoff for positive-scoring molecules 3-fold increase, read-out: AK-based Prestwick Library Screening Results, K. pneumoniae (fold increase in extracellular AK activity)
[27] = planktonic, cutoff for positive-scoring molecules 3-fold increase, read-out: AK-based Prestwick Library Screening Results, E. faecium (fold increase in extracellular AK activity)
[28] = planktonic, cutoff for positive-scoring molecules 3-fold increase, read-out: AK-based Prestwick Library Screening Results, A. baumannii (fold increase in extracellular AK activity)
[29] = planktonic, cutoff for positive-scoring molecules 3-fold increase, read-out: AK-based Prestwick Library Screening Results, E. cloacae (fold increase in extracellular AK activity)

CCC(=O)O[C@]1(C(=O)SCF)[C@H](C)C[C@H]2[C@@H]3C[C@H](F)C4=CC(=O)C=C[C@]4(C)[C@@]3(F)[C@@H](O)C[C@@]21C [Fluticasone propionate]
fold induction at 50 µM [1, 8]: 0.8 | fold induction at 50 µM [2, 9]: 0.7 | fold induction at 50 µM [3, 10]: 0.8 | fold induction at 50 µM [4, 11]: 0.7 | fold induction at 50 µM [5, 12]: 0.9 | fold induction at 50 µM [6, 13]: 0.8 | fold induction at 50 µM [7, 14]: 1.5

CC(C)n1c(/C=C/C(O)CC(O)CC(=O)O)c(-c2ccc(F)cc2)c2ccccc21 (centres unmarked) [Fluvastatin sodium salt]
fold induction at 50 µM ([1]; cutoff for positive-scoring molecules 3-fold increase, read-out: AK-based Prestwick Library Screening Results, P. aeruginosa (fold increase in extracellular AK activity)): 1 | fold induction at 50 µM ([2]; cutoff for positive-scoring molecules 3-fold increase, read-out: AK-based Prestwick Library Screening Results, S. aureus (fold increase in extracellular AK activity)): 1 | fold induction at 50 µM ([3]; cutoff for positive-scoring molecules 3-fold increase, read-out: AK-based Prestwick Library Screening Results, E. coli (fold increase in extracellular AK activity)): 1.3 | fold induction at 50 µM ([4]; cutoff for positive-scoring molecules 3-fold increase, read-out: AK-based Prestwick Library Screening Results, K. pneumoniae (fold increase in extracellular AK activity)): 0.9 | fold induction at 50 µM ([5]; cutoff for positive-scoring molecules 3-fold increase, read-out: AK-based Prestwick Library Screening Results, E. faecium (fold increase in extracellular AK activity)): 1 | fold induction at 50 µM ([6]; cutoff for positive-scoring molecules 3-fold increase, read-out: AK-based Prestwick Library Screening Results, A. baumannii (fold increase in extracellular AK activity)): 0.9 | fold induction at 50 µM ([7]; cutoff for positive-scoring molecules 3-fold increase, read-out: AK-based Prestwick Library Screening Results, E. cloacae (fold increase in extracellular AK activity)): 1.7

COCCCC/C(=N\OCCN)c1ccc(C(F)(F)F)cc1 [Fluvoxamine maleate]
fold induction at 50 µM [1, 8]: 0.8 | fold induction at 50 µM [2, 9]: 0.7 | fold induction at 50 µM [3, 10]: 0.9 | fold induction at 50 µM [4, 11]: 0.7 | fold induction at 50 µM [5, 12]: 0.8 | fold induction at 50 µM [6, 13]: 0.9 | fold induction at 50 µM [7, 14]: 1.1

Nc1nc2ncc(CNc3ccc(C(=O)N[C@@H](CCC(=O)O)C(=O)O)cc3)nc2c(=O)[nH]1 [Folic acid]
fold induction at 50 µM [1, 15]: 1.1 | fold induction at 50 µM [2, 16]: 1 | fold induction at 50 µM [3, 17]: 1.3 | fold induction at 50 µM [4, 18]: 1 | fold induction at 50 µM [5, 19]: 1.1 | fold induction at 50 µM [6, 20]: 1.3 | fold induction at 50 µM [7, 21]: 1.3

Nc1nc(=O)c2c([nH]1)NCC(CNc1ccc(C(=O)N[C@@H](CCC(=O)[O-])C(=O)[O-])cc1)N2C=O.[Ca+2] (some centres unmarked) [Folinic acid calcium salt]
AK-based Prestwick Library Screening Results, P. aeruginosa (fold increase in extracellular AK activity) [1, 22]: 0.6 | AK-based Prestwick Library Screening Results, S. aureus (fold increase in extracellular AK activity) [2, 22]: 0.7 | AK-based Prestwick Library Screening Results, E. coli (fold increase in extracellular AK activity) [3, 22]: 0.7 | AK-based Prestwick Library Screening Results, K. pneumoniae (fold increase in extracellular AK activity) [4, 22]: 0.6 | AK-based Prestwick Library Screening Results, E. faecium (fold increase in extracellular AK activity) [5, 22]: 1.0 | AK-based Prestwick Library Screening Results, A. baumannii (fold increase in extracellular AK activity) [6, 22]: 0.7 | AK-based Prestwick Library Screening Results, E. cloacae (fold increase in extracellular AK activity) [7, 22]: 0.7

O=C(O)c1ccccc1OP(=O)(O)O [Fosfosal]
fold induction at 50 µM [1, 23]: 0.7 | fold induction at 50 µM [2, 24]: 0.7 | fold induction at 50 µM [3, 25]: 0.7 | fold induction at 50 µM [4, 26]: 0.6 | fold induction at 50 µM [5, 27]: 0.9 | fold induction at 50 µM [6, 28]: 0.8 | fold induction at 50 µM [7, 29]: 0.8

O=C1OC(CN2CCOCC2)CN1/N=C/c1ccc([N+](=O)[O-])o1 (centres unmarked) [Furaltadone hydrochloride]
fold induction at 50 µM [1, 23]: 1.1 | fold induction at 50 µM [2, 24]: 0.7 | fold induction at 50 µM [3, 25]: 0.9 | fold induction at 50 µM [4, 26]: 2.6 | fold induction at 50 µM [5, 27]: 1.1 | fold induction at 50 µM [6, 28]: 1 | fold induction at 50 µM [7, 29]: 1.7

O=C1OCCN1/N=C/c1ccc([N+](=O)[O-])o1 [Furazolidone]
fold induction at 50 µM [1, 23]: 0.6 | fold induction at 50 µM [2, 24]: 0.8 | fold induction at 50 µM [3, 25]: 0.8 | fold induction at 50 µM [4, 26]: 3.2 | fold induction at 50 µM [5, 27]: 0.9 | fold induction at 50 µM [6, 28]: 0.4 | fold induction at 50 µM [7, 29]: 0.6

NS(=O)(=O)c1cc(C(=O)O)c(NCc2ccco2)cc1Cl [Furosemide]
fold induction at 50 µM ([1]; planktonic P. aeruginosa, cutoff for positive-scoring molecules 3-fold increase, read-out: AK-based Prestwick Library Screening Results, P. aeruginosa (increase in extracellular AK activity)): 0.9 | fold induction at 50 µM ([2]; planktonic S. aureus, cutoff for positive-scoring molecules 3-fold increase, read-out: AK-based Prestwick Library Screening Results, S. aureus (increase in extracellular AK activity)): 0.7 | fold induction at 50 µM ([3]; planktonic E. coli, cutoff for positive-scoring molecules 3-fold increase, read-out: AK-based Prestwick Library Screening Results, E. coli (increase in extracellular AK activity)): 1 | fold induction at 50 µM ([4]; planktonic K. pneumoniae, cutoff for positive-scoring molecules 3-fold increase, read-out: AK-based Prestwick Library Screening Results, K. pneumoniae (increase in extracellular AK activity)): 0.7 | fold induction at 50 µM ([5]; planktonic E. faecium, cutoff for positive-scoring molecules 3-fold increase, read-out: AK-based Prestwick Library Screening Results, E. faecium (increase in extracellular AK activity)): 0.9 | fold induction at 50 µM ([6]; planktonic A. baumannii, cutoff for positive-scoring molecules 3-fold increase, read-out: AK-based Prestwick Library Screening Results, A. baumannii (increase in extracellular AK activity)): 0.8 | fold induction at 50 µM ([7]; planktonic E. cloacae, cutoff for positive-scoring molecules 3-fold increase, read-out: AK-based Prestwick Library Screening Results, E. cloacae (increase in extracellular AK activity)): 0.8

CCCCc1ccc(C(=O)O)nc1 [Fusaric acid]
fold induction at 50 µM ([1]; planktonic P. aeruginosa, […], read-out: AK-based Prestwick Library Screening Results, P. aeruginosa (increase in extracellular AK activity)): 1.1 | fold induction at 50 µM ([2]; planktonic S. aureus, […], read-out: AK-based Prestwick Library Screening Results, S. aureus (increase in extracellular AK activity)): 0.9 | fold induction at 50 µM ([3]; planktonic E. coli, […], read-out: AK-based Prestwick Library Screening Results, E. coli (increase in extracellular AK activity)): 0.8 | fold induction at 50 µM ([4]; planktonic K. pneumoniae, […], read-out: AK-based Prestwick Library Screening Results, K. pneumoniae (increase in extracellular AK activity)): 0.9 | fold induction at 50 µM ([5]; planktonic E. faecium, […], read-out: AK-based Prestwick Library Screening Results, E. faecium (increase in extracellular AK activity)): 1.1 | fold induction at 50 µM ([6]; planktonic A. baumannii, […], read-out: AK-based Prestwick Library Screening Results, A. baumannii (increase in extracellular AK activity)): 0.9 | fold induction at 50 µM ([7]; planktonic E. cloacae, […], read-out: AK-based Prestwick Library Screening Results, E. cloacae (increase in extracellular AK activity)): 1.2

CC(=O)O[C@H]1C[C@@]2(C)[C@@H](C[C@@H](O)[C@H]3[C@@]4(C)CC[C@@H](O)[C@@H](C)[C@@H]4CC[C@@]32C)/C1=C(\CCC=C(C)C)C(=O)O [Fusidic acid sodium salt]
fold induction at 50 µM [1, 15]: 1.1 | fold induction at 50 µM [2, 16]: 4.2 | fold induction at 50 µM [3, 17]: 1.1 | fold induction at 50 µM [4, 18]: 1.1 | fold induction at 50 µM [5, 19]: 1.1 | fold induction at 50 µM [6, 20]: 1.3 | fold induction at 50 µM [7, 21]: 1.4
